Laboratory results published in patent publication US12662509B2, “Inhibitors of 17β-HSD7 and uses thereof” (UNIVERSITÉ LAVAL, priority 2021, dated 2026).

What was measured:
[1] = test system: human MCF-7 breast tumors; test: MCF-7 xenograft tumor growth in OVX nude mice; type: in vivo; conditions: for growth of human MCF-7 breast tumors, % of initial growth: OVX nude mice, INH7 groups 5 mg/kg/day + E1 0.1 μg/mice/day, E1, E2 groups 0.1 μg/mice/day
Text: FIG. 4—is an illustration of the effect of various inhibitors of 17 β-HSD1 (INH7-10 and INH7-464) on the growth of human MCF-7 breast tumors in nude mice over a period of 22 days; illustration of the regression of MCF-7 xenograft tumor growth in OVX nude mice (cf. Table 1). The growth regression curves represent the decrease in tumor volume in response to INH7 (INH7-10 and INH7-464) treatment (Groups 4 and 5). […] Tumor volume=0.52×(length×width^2). Statistical significance by one-way ANOVA assay is shown by **P<0.01.
(§1) Female athymic nude mice (4 weeks) were ovariectomized under isoflurane-induced anesthesia. One week after ovariectomy (OVX), 5×10^6 MCF-7 cells or 10×10^6 T47D cells suspended in a […] mixture of Matrigel (BD)/culture medium (50:50) were administered by s.c. injection on both side of each mice. All mice were supplemented by daily s.c. injection 0.1 μg Estradiol (E2) for 5 weeks. […] The animals were euthanized on day 23, followed by the collection of tumor specimens and blood samples. The estrogen-sensitive organs (uterus and vagina), liver and kidney were removed and excised of fat and weighed. Tumor specimens were photographed and weighed.

human T47D breast tumors = test: T47D xenograft tumor growth in OVX nude mice; type: in vivo; conditions: for growth of human T47D breast tumors, % of initial growth: OVX nude mice, INH7 groups 5 mg/kg/day + E1 0.1 μg/mice/day, E1, E2 groups 0.1 μg/mice/day
Text: FIG. 5—is an illustration of the effect of various inhibitors of 17 β-HSD1 (INH7-10 and INH7-464) on the growth of human T47D breast tumors in nude mice over a period of 22 days; illustration of the regression of T47D xenograft tumor growth in OVX nude mice by (cf. Table 2). The growth regression curves represent the decrease in tumor volume in response to INH7 (INH7-10 and INH7-464) treatment (Groups 4 and 5). […] Statistical significance by one-way ANOVA assay is shown by **P<0.01.
as §1

[2] = Cytotoxicity on the MCF-7 cell line; type: cell-based; conditions: human, MCF-7 cells; incubation time 3 days; 1 nM-100 μM
Protocol: (§2) FIG. 9A—is an illustration of the cytotoxicity of the INH7-464 inhibitor on the MCF-7 cell line. FIG. 9B—is an illustration of the cytotoxicity of the INH7-464 inhibitor on the MCF-10A cell line. Paclitaxel (PTX) was used as the reference compound and was dissolved in DMSO for the stock solutions. The stock solutions were subsequently diluted at multiple concentrations with culture media in order to obtain the final desired concentrations ranging between 1 nM-100 μM. The incubation time was 3 days. The IC50 values (at which 50% of cell growth inhibition—concentration that inhibits 50% of cell proliferation—is observed) were calculated using an iterative least square regression method (cf. Table 3). The cytotoxicity values for the INH7-464 inhibitor were lower than those for Paclitaxel (PTX) in the different cell lines (cf. Table 3).
(§3) Paclitaxel (PTX) was used as a reference compound and was dissolved in DMSO for the stock solutions. The stock solutions were subsequently diluted at multiple concentrations with culture media in order to obtain the final desired concentrations ranging from 1 nM-100 μM. The incubation time was 3 days. The IC50 values (at which 50% of cell growth inhibition—concentration that inhibits 50% of cell proliferation—is observed) were calculated using an iterative least square regression method.

[3] = Cytotoxicity on the MCF-10A cell line; type: cell-based; conditions: human, MCF-10A cells; incubation time 3 days; 1 nM-100 μM
Protocol: as §2, §3

[4] = Toxicity of INH7-464 in mice, weekly s.c. injection over 21 days; type: in vivo
Protocol: FIG. 10—is an illustration of the toxicity of the INH7-464 inhibitor in mice (8 mice/group) at various concentrations over a period of 21 days. Control Group: 0.4% methylcellulose/DMSO (92/8). INH7-464 group: Day 1: 20 mg/kg (INH7-464); Day 8: 30 mg/kg (INH7-464); Day 15: 60 mg/kg (INH7-464). […] Statistical significance by T-test is shown by ***P<0.001.
FIG. 11—is an illustration of the effect (toxicity) of the INH7-464 inhibitor on the liver, kidney, ovary and uterus weight, as per the toxicity experiment illustrated in FIG. 10.
INH7-464 was administered by s.c. injection. INH7-464 was first dissolved in DMSO, followed by the addition of 0.4% methylcellulose to obtain a final 8% concentration of co-solvent (methylcellulose/DMSO (92/8). The injected volume was 0.1 mL (s.c.). […] All the mice were weighed every day. The liver, kidney, ovaries, and uterus were collected and weighed following 3 weeks of treatment.

MCF-7 cell proliferation = test: Effect of INH7 inhibitors on MCF-7 cell proliferation (DNA synthesis, 144 hours, E1 0.1 nM); type: cell-based, human; conditions: 2 μM
Protocol: FIG. 1—is an illustration of the effect of various inhibitors of […] (INH7-10, INH7-81 and INH7-464) on MCF-7 cell proliferation over a period of 144 hours.
The effects of various inhibitors, including INH7-464, on MCF-7 cell proliferation over a period of 144 hours is illustrated in FIG. 1. The hormone source E1 (Estrone) was provided at 0.1 nM. Data are reported as % of DNA synthesis vs Control (0.1 nM E1) (100%). Quadruple wells were used for each condition and repeated in three independent experiments. Error bars represent SD. *, P<0.05 vs control; **, P<0.001 vs. control by Student's test.

[5] = Body weight of nude mice during treatment of MCF-7 and T47D tumors; type: in vivo; conditions: MCF-7 and T47D tumor-bearing nude mice; 22 days; 5 mg/kg/day
Text: FIG. 6A—is an illustration of the body weight of the nude mice following treatment of human MCF-7 and T47D breast tumors with INH7-47 over a period of 22 days. […] (FIG. 6B) is an illustration of the body weight of the OVX nude mice (mice having undergone an ovariectomy) over a period of 22 days. The OVX mice were not treated with an INH7 inhibitor, but instead were subjected to daily subcutaneous (s.c.) injection with vehicle (0.4% methylcellulose/DMSO (92/8)).
as §1

| Structure (SMILES) | growth of human MCF-7 breast tumors, % of initial growth ([1]; day 0) [%] | growth of human MCF-7 breast tumors, % of initial growth ([1]; day 5) [%] | growth of human MCF-7 breast tumors, % of initial growth ([1]; day 9) [%] | growth of human MCF-7 breast tumors, % of initial growth ([1]; day 12) [%] | growth of human MCF-7 breast tumors, % of initial growth ([1]; day 13) [%] | growth of human MCF-7 breast tumors, % of initial growth ([1]; day 19) [%] | growth of human MCF-7 breast tumors, % of initial growth ([1]; day 22) [%] | growth of human T47D breast tumors, % of initial growth (human T47D breast tumors; day 0) [%] | growth of human T47D breast tumors, % of initial growth (human T47D breast tumors; day 5) [%] | growth of human T47D breast tumors, % of initial growth (human T47D breast tumors; day 9) [%] | growth of human T47D breast tumors, % of initial growth (human T47D breast tumors; day 12) [%] | growth of human T47D breast tumors, % of initial growth (human T47D breast tumors; day 15) [%] | growth of human T47D breast tumors, % of initial growth (human T47D breast tumors; day 19) [%] | growth of human T47D breast tumors, % of initial growth (human T47D breast tumors; day 22) [%] | IC50 at 3 days [2] [nM] | IC50 at 3 days [3] [nM] | also measured |
| --- | --- | --- | --- | --- | --- | --- | --- | --- | --- | --- | --- | --- | --- | --- | --- | --- | --- |
| C[C@]12CC[C@@H]3c4ccc(O)cc4CC[C@H]3[C@@H]1CCC2=O [E1, Estrone] | 100 | 102.886 | 100.227 | 109.033 | 95.3089 | 100.249 | 102.648 | 100 | 93.64 | 113.43 | 112.0519 | 122.0034 | 112.9356 | 112.831 |  |  |  |
| C[C@]12CC[C@@H]3c4ccc(O)cc4CC[C@H]3[C@@H]1CC[C@@H]2O [E2, Estradiol] | 100 | 82.8535 | 97.2662 | 131.541 | 123.252 | 108.413 | 120.974 | 100 | 112.55 | 120.84 | 121.306 | 150.417 | 144.117 | 138.919 |  |  |  |
| CCCCCCCCCN1C[C@]2(CC[C@H]3[C@@H]4CC[C@H]5NC(=O)CC[C@]5(C)[C@H]4CC[C@@]32C)OC1=O [INH7-464, (4aR,4bS,6aS,7R,9aS,9bR,11aR)-4a,6a-dimethyl-3′-nonyltetradecahydrospiro [indeno[5,4-f]quinoline-7,5′-oxazolidine]-2,2′(1H)-dione] | 100 | 88.1406 | 81.8741 | 84.2617 | 66.5956 | 67.8843 | 59.6876 | 100 | 100.51 | 78.1158 | 76.9139 | 63.5165 | 67.9195 | 50.9558 | 582 | 2670 | tolerability after weekly subcutaneous injection ([4]; 8/group, 20-60 mg/kg weekly s.c. for 3 weeks (21 days)): very well tolerated; apparent toxicity ([4]; 20-60 mg/kg weekly (s.c.)): no apparent toxicity; weight changes of liver, kidney, ovary and uterus ([4]; after 3 weeks of weekly s.c. 20, 30 and 60 mg/kg): no significant weight changes; decrease in the tumor size relative to the control (E1) ([1]; MCF-7 xenograft model, day 22, 5 mg/kg/day): 60%±5%; inhibition of MCF-7 cell proliferation (% of DNA synthesis vs control 0.1 nM E1) (MCF-7 cell proliferation): significant inhibition at 2 μM; body weight of the nude mice [5]: absence of weight loss; decrease in the tumor size relative to the control (E1) (human T47D breast tumors; T47D xenograft model, day 22, 5 mg/kg/day): 51%±5% |
| CC(=O)O[C@H]1C(=O)[C@@]2(C)[C@H]([C@H](OC(=O)c3ccccc3)[C@]3(O)C[C@H](OC(=O)[C@H](O)[C@@H](NC(=O)c4ccccc4)c4ccccc4)C(C)=C1C3(C)C)[C@]1(OC(C)=O)CO[C@@H]1C[C@@H]2O [Paclitaxel (PTX), Paclitaxel] |  |  |  |  |  |  |  |  |  |  |  |  |  |  | 3.08 | 0.637 |  |
